Experimental data published in PMC10654507, “A cleavable chimeric peptide with targeting and killing domains enhances LPS neutralization and antibacterial properties against multi-drug resistant E. coli” (Communications Biology, 2023).
Converted amounts (≈) assume the structure as drawn. Read-outs that look alike come from different tables or passages of the source. Residues, ends and D or L forms follow the SMILES beside them.

Columns and labels:
LPS [1] = assay: Lung injury score (H&E histology), LPS-challenged mice; assay type: in vivo, mouse; conditions: 7 μmol/kg pre-treatment, 24 h (implied by contrast with 12 h)
Experimental: Fig. 8 Effects of cleavable chimeric peptide R7 on lung injury in mice. […] Lung injury was analyzed histologically at 12 h or 24 h, respectively. a Histopathological images of lung sections after staining with hematoxylin and eosin (H&E). Images are presented at a magnification of 100×. b Pathological analysis of lung. Lung injury involves in inflammation (such as peribronchial, perivascular, intrabronchial, and pulmonary interstitial one), bronchial exudate, and alveolar septal thickening, respectively. The specific degree of lung injury of each mouse is assessed by Score 0 (asymptomatic), Score 1 (mild), Score 2 (moderate), and Score 3 (severe), respectively. c The number of counted infiltrated inflammatory cells within processed lung sections from (a). Data represent the mean ± SD of three independent experiments. Different lower-case letters indicate a significant difference between the two groups (p < 0.05).
Lung tissues were taken at 12 h and 24 h, respectively, washed with PBS, and fixed in 4% paraformaldehyde overnight. After dehydration in different concentrations of ethanol (including 75%, 85%, 90%, and 95%, respectively), the tissues were embedded in paraffin, sliced, and stained with hematoxylin. Observation was performed under a light microscope. The mice only injected with E. coli, LPS or PBS was regard as the negative or blank control.

MDR E. coli = assay: Antibacterial activity after incubation in human serum (inhibition assay); assay type: cell-based, Escherichia coli; conditions: Supplementary Fig. 2c source data, mean
Experimental: Serum stability of R7 and its parent-L7 was tested as previously described with minor modifications[46],[53]. […] The samples were incubated at 4 °C for 15 min and centrifuged for 10 min at 12,000 rpm. The supernatants were analyzed by RP-HPLC or inhibition zone method. Moreover, after incubation in serum for 2 h, R7 was analyzed by matrix assisted laser desorption/ionization-time of flight mass spectrometry (MALDI-TOF MS) and high-performance liquid chromatography-mass spectrometry (HPLC-MS), respectively.
Supplementary Figure 2. Serum stability and release of peptides in human serum. a Detection of the peak area change of peptides in serum by RP-HPLC. b The remaining rate of peptides in bovine serum. c The antibacterial activity of peptides against MDR E. coli in serum detected by an inhibition assay. d The MALDI-TOF mass spectrometry of R7 after incubation in bovine serum for 2 h. The experiments were repeated three times. Data in a and d is representative of three biological replicates.
The results are given as the mean ± SD of three independent experiments in b and c. Different lower-case letters indicate a significant difference between the two groups (p<0.05).
(1 picture or pasted object on this page, not shown here)

MDR E. coli CVCC195 [2] = assay: Intestinal alkaline phosphatase (IAP) activity in duodenum, E. coli-challenged mice; assay type: in vivo, mouse; conditions: for IAP levels in mice: Fig. 5g source data, peptide + E. coli, mean; for IAP activity: duodenum, 12 h after E. coli infection, mice pre-treated with 7 μmol/kg peptide, ELISA
Experimental: After E. coli or LPS challenge, the mice were sacrificed at 12 h and 24 h, respectively, and the sera were collected to detect inflammatory cytokines (such as tumor necrosis factor-α (TNF-α), interleukin-6 (IL-6), interleukin-1β (IL-1β), and interleukin-10 (IL-10)) using the enzyme linked immunosorbent assay (ELISA) kits. To evaluate the specific activity of intestinal alkaline phosphatase (IAP), a 2 cm segment of duodenum was rapidly intercepted from the mice and homogenized; the IAP levels in the supernatant were detected by ELISA. In addition, the lungs were collected from the mice infected by E. coli after 12 and 24 h, respectively and were homogenized in sterile PBS for the bacterial counts assay.

Escherichia coli CVCC195 = assay type: cell-based; conditions: repeated three times; for MBC: lowest concentration giving 99.9% reduction of the inoculum; for MIC: microtiter broth dilution, 10^5 CFU/mL, 37 °C, 16 ~ 18 h
Experimental: (§1) The minimum inhibitory concentration (MIC) and minimum bactericidal concentration (MBC) of peptides were determined by the microtiter broth dilution method according to Clinical and Laboratory Standards Institute (CLSI) guidelines. […] PBS was used as the negative control. […] The MBC value was calculated as the lowest concentration of peptides resulting in a 99.9% reduction of the original inoculum. All experiments were repeated three times.

[3] = tested on: Staphylococcus aureus ATCC43300; assay type: cell-based; conditions: repeated three times; for MBC: lowest concentration giving 99.9% reduction of the inoculum; for MIC: microtiter broth dilution, 10^5 CFU/mL, 37 °C, 16 ~ 18 h
Experimental: as §1

S. aureus CVCC546 = assay type: cell-based, Staphylococcus aureus; conditions: repeated three times; for MBC: lowest concentration giving 99.9% reduction of the inoculum; for MIC: microtiter broth dilution, 10^5 CFU/mL, 37 °C, 16 ~ 18 h
Experimental: as §1

MDR E. coli CVCC195 [4] = assay: Mouse survival, preventive treatment before MDR E. coli challenge; assay type: in vivo; conditions: 7 μmol/kg i.p. at 0 h, MDR E. coli CVCC195 0.5 × 10^9 CFU/mouse i.p. at 6 h; five mice/group
Experimental: A sepsis mouse model established in our laboratory was used to evaluate the prevention effect of peptides. […] The survival rate of mice was recorded for 7 days. The mice injected with saline were used as negative control.

LPS [5] = assay type: in vivo, mouse; parameters: key: 1 represents a mouse death; 0 represents no death; conditions: Supplementary Fig. 3b source data, LPS challenge
Experimental: Supplementary Figure 3. Therapeutic eﬀicacy of cleavable chimeric peptide R7 in the mice
challenged with MDR E. coli or LPS After the intraperitoneal injection with MDR E. coli (a) or LPS
(b) at a concentration of LD100, the mice were treated with 7 μmol/kg R7 at 0.5 h and 8 h, respectively.
The mouse survival was recorded for 7 d. The mice injected with MDR E. coli/LPS or saline were used

RAW264.7 cells = assay: Cytotoxicity, MTT method; assay type: cell-based; conditions: for RAW 264.7 cell survival: 128 μM; for cytotoxicity: low concentration (0 ~ 32 μM)
Experimental: RAW264.7 cells (2.5 × 10^4 cells/mL, 100 μL) were added into the 96-well plate and cultured at 37 °C in 5% CO2 for 24 h. After removing the medium and washing twice with PBS, 100 μL peptides (1, 2, 4, 8, 16, 32, 64 and 128 μM) were added to each well. PBS was served as the negative control. After incubation for 24 h, 20 μL MTT (5 mg/mL) was added into each well and incubated for another 4 h. Then, the supernatant was removed and 150 μL dimethylsulfoxide (DMSO) was added into the plate and shaken for 10 min. The absorbance of each well was measured at 570 nm and the survival rate of cells was calculated as follows: Survival (%) = [(Abspeptide/ Abscontrol)] × 100, where Abspeptide and Abscontrol present the absorbance of peptide and PBS control, respectively.

S. typhimurium CVCC533 = assay type: cell-based, Salmonella typhimurium; conditions: repeated three times; for MBC: lowest concentration giving 99.9% reduction of the inoculum; for MIC: microtiter broth dilution, 10^5 CFU/mL, 37 °C, 16 ~ 18 h
Experimental: as §1

[6] = incubation in human serum 0.5 h
[7] = event at day 2, one cell per mouse
[8] = event at day 3, one cell per mouse
[9] = event at day 7, one cell per entry

SMILES	lung injury score (LPS [1]) [points]	antibacterial activity against MDR E. coli in human serum detected by an inhibition assay (MDR E. coli; incubation in human serum 0 h)	antibacterial activity against MDR E. coli in human serum detected by an inhibition assay (MDR E. coli; [6])	antibacterial activity against MDR E. coli in human serum detected by an inhibition assay (MDR E. coli; incubation in human serum 1 h)	antibacterial activity against MDR E. coli in human serum detected by an inhibition assay (MDR E. coli; incubation in human serum 2 h)	antibacterial activity against MDR E. coli in human serum detected by an inhibition assay (MDR E. coli; incubation in human serum 4 h)	antibacterial activity against MDR E. coli in human serum detected by an inhibition assay (MDR E. coli; incubation in human serum 8 h)	IAP levels in mice (MDR E. coli CVCC195 [2]; 12 h)	IAP levels in mice (MDR E. coli CVCC195 [2]; 24 h)	IAP activity (MDR E. coli CVCC195 [2]) [U/g]	MBC (Escherichia coli CVCC195) [µM]	MIC (Escherichia coli CVCC195) [µM]	MBC [3] [µM]	MIC [3] [µM]	MBC (S. aureus CVCC546) [µM]	MIC (S. aureus CVCC546) [µM]	mouse survival at 7 days (MDR E. coli CVCC195 [4]) [%]	therapeutic efficacy, survival, single-animal event (LPS [5]; [7])	therapeutic efficacy, survival, single-animal event (LPS [5]; [8])	therapeutic efficacy, survival, single-animal event (LPS [5]; [9])	also measured
CSCC[C@H](NC(=O)[C@H](CCCNC(=N)N)NC(=O)[C@H](Cc1c[nH]c2ccccc12)NC(=O)[C@H](C)NC(=O)[C@H](Cc1c[nH]c2ccccc12)NC(=O)[C@H](CCCNC(=N)N)NC(=O)[C@H](Cc1c[nH]c2ccccc12)NC(=O)[C@H](C)NC(=O)[C@H](CCCCN)NC(=O)[C@@H](N)Cc1ccccc1)C(=O)N[C@@H](CCCCN)C(=O)N[C@@H](CCCCN)C(=O)N[C@@H](CC(C)C)C(=O)N[C@@H](C)C(=O)N[C@@H](C)C(=O)N1CCC[C@H]1C(=O)N[C@@H](CO)C(=O)O [L7] (H-FKAWRWAWRMKKLAAPS-OH)	6.3	0.99	0.9833	0.9833	0.8667	0.78	0	646.785	420.095	646.8	4.53 (≈ 9.67 µg/mL)	2.26 (≈ 4.82 µg/mL)	18.1 (≈ 38.6 µg/mL)	18.1 (≈ 38.6 µg/mL)	36.2 (≈ 77.2 µg/mL)	18.1 (≈ 38.6 µg/mL)	60	1	1	0	RAW 264.7 cell survival (RAW264.7 cells): 87.7%; cytotoxicity (RAW264.7 cells): no hemolysis and cytotoxicity; MBC (S. typhimurium CVCC533): 18.1 µM (≈ 38.6 µg/mL); MIC (S. typhimurium CVCC533): 18.1 µM (≈ 38.6 µg/mL)
CSCC[C@H](NC(=O)[C@H](CCCNC(=N)N)NC(=O)[C@H](Cc1c[nH]c2ccccc12)NC(=O)[C@H](C)NC(=O)[C@H](Cc1c[nH]c2ccccc12)NC(=O)[C@H](CCCNC(=N)N)NC(=O)[C@H](Cc1c[nH]c2ccccc12)NC(=O)[C@H](C)NC(=O)[C@H](CCCCN)NC(=O)[C@H](Cc1ccccc1)NC(=O)[C@H](CCCNC(=N)N)NC(=O)[C@H](CCCNC(=N)N)NC(=O)[C@H](CCCCN)NC(=O)[C@H](CCCNC(=N)N)NC(=O)[C@H](CCCCN)NC(=O)[C@H](Cc1ccccc1)NC(=O)[C@H](Cc1ccccc1)NC(=O)[C@H](CO)NC(=O)[C@H](C)NC(=O)[C@H](CCCNC(=N)N)NC(=O)[C@@H](NC(=O)[C@H](CCCCN)NC(=O)[C@H](Cc1c[nH]c2ccccc12)NC(=O)[C@H](CCCNC(=N)N)NC(=O)CNC(=O)[C@H](CCC(N)=O)NC(=O)[C@@H](NC(=O)[C@@H](N)CCCNC(=N)N)C(C)C)C(C)C)C(=O)N[C@@H](CCCCN)C(=O)N[C@@H](CCCCN)C(=O)N[C@@H](CC(C)C)C(=O)N[C@@H](C)C(=O)N[C@@H](C)C(=O)N1CCC[C@H]1C(=O)N[C@@H](CO)C(=O)O [R7] (H-RVQGRWKVRASFFKRKRRFKAWRWAWRMKKLAAPS-OH)	3.0	0.8933	0.91	0.91	0.8967	0.9033	0.8967	514.632	541.948	514.6	1.13 (≈ 5.06 µg/mL)	1.13 (≈ 5.06 µg/mL)	2.26 (≈ 10.1 µg/mL)	2.26 (≈ 10.1 µg/mL)	2.26 (≈ 10.1 µg/mL)	2.26 (≈ 10.1 µg/mL)	100	1	1	0	RAW 264.7 cell survival (RAW264.7 cells): 58.2%; cytotoxicity (RAW264.7 cells): no hemolysis and cytotoxicity; MBC (S. typhimurium CVCC533): 2.26 µM (≈ 10.1 µg/mL); MIC (S. typhimurium CVCC533): 1.13 µM (≈ 5.06 µg/mL)
